The text below walks through data of ChEMBL document CHEMBL2396533, “Γ-aminobutyric acid(C) (GABAC) selective antagonists derived from the bioisosteric modification of 4-aminocyclopent-1-enecarboxylic acid: amides and hydroxamates” (J Med Chem, 2013).

The source made the active and inactive calls. The calls are words filed in the database; no cut-off is given here.

For assay [1], the target named is T1, GABA-A receptor; alpha-1/beta-2/gamma-2 (Homo sapiens) (UniProt P14867+P47870+P18507). Nature of the assay: Agonist activity at human recombinant GABAAalpha1beta2gamma2L receptor expressed in Xenopus laevis assessed as induction of chloride current production at 300 uM after 2 to 5 days by two-electrode voltage-clamp electrophysiological assay relative to GABA.

The target in assay [2] is T2, Gamma-aminobutyric acid receptor subunit rho-1 (Homo sapiens, UniProt P24046). The assay can be described thus: Antagonist activity at human recombinant GABAA rho1 receptor expressed in Xenopus laevis assessed as inhibition of GABA-induced chloride current production after 2 to 5 days by two-electrode voltage-clamp electrophysiological assay.
Assay [3] addresses T1, GABA-A receptor; alpha-1/beta-2/gamma-2 (Homo sapiens). Nature of the assay: Antagonist activity at human recombinant GABAAalpha1beta2gamma2L receptor expressed in Xenopus laevis assessed as inhibition of GABA-induced chloride current production at 300 uM after 2 to 5 days by two-electrode voltage-clamp electrophysiological assay relative to control.
In assay [4] the target is T2, Gamma-aminobutyric acid receptor subunit rho-1. The assay can be described thus: Antagonist activity at human recombinant GABAA rho1 receptor expressed in Xenopus laevis assessed as inhibition of GABA-induced chloride current production at 300 uM after 2 to 5 days by two-electrode voltage-clamp electrophysiological assay relative to control.

T2 sequence (P24046 whole entry): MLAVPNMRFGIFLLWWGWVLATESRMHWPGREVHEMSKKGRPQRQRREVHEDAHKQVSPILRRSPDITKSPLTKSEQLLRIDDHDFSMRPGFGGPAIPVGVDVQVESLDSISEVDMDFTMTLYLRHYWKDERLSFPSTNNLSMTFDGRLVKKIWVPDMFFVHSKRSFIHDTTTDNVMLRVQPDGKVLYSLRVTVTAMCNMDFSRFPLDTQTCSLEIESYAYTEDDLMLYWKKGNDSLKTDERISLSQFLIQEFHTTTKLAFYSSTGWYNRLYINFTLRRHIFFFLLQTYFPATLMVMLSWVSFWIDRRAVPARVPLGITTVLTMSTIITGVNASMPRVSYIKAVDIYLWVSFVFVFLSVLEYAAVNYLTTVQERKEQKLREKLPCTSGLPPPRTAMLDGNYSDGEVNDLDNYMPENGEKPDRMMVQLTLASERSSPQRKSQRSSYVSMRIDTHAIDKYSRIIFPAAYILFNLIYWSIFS

On to `C=CCONC(=O)C1=CCC(N)C1` (racemic), for which, in assay [1], the Activity came out at 1.7%. Also, in assay [2], the IC50 was determined as 115 µM.
For `NC(=O)C1=CCC(N)C1` (racemic), the inhibition in assay [3] was determined as 23.3%. For the same compound, the concentration for half-maximal inhibition (IC50) in assay [2] stood at 9.6 µM.
For the compound `CNC(=O)C1=CCC(N)C1` (racemic), the result in assay [1] was inactive. Moreover, the inhibition entry in assay [3] was “inactive”. Also, the IC50 in assay [2] worked out at 408 µM.
Consider `CCCNC(=O)C1=CCC(N)C1` (racemic), for which the outcome in assay [1] was inactive. In assay [3], the inhibition entry is “inactive”. In assay [2], the IC50 was 570 µM.
Consider `NC1CC=C(C(=O)NO)C1` (racemic), for which the Activity in assay [1] was determined as 4.3%. Further, the half-maximal inhibitory concentration (IC50) in assay [2] worked out at 12.9 µM.
Take `NC1CC=C(C(=O)O)C1` (racemic): in assay [1], the Activity turned out to be 59.7%. Moreover, the IC50 in assay [2] was 6.6 µM.
For `CONC(=O)C1=CCC(N)C1` (racemic) the same measures were 6.3% and 81.5 µM.
On to `CCONC(=O)C1=CCC(N)C1` (racemic), for which the Activity in assay [1] is 2.5%. Further, the IC50 in assay [2] amounted to 153 µM.
With `CCCCCNC(=O)C1=CCC(N)C1` (racemic), the result in assay [1] was inactive. Also, the inhibition entry in assay [3] is “inactive”. Moreover, the inhibition in assay [4] turned out to be 20.5%.
With `Cc1ccc(NC(=O)C2=CCC(N)C2)cc1` (racemic), in assay [1], the outcome was inactive. Further, in assay [3], the inhibition result is “inactive”. In assay [4], the inhibition was found to be 11.3%.
